According to patent US20240382470A1, “Irak Inhibitor for Treating Cytokine Release-Related Conditions Associated With Infection by a Respiratory Virus” (Rigel Pharmaceuticals, Inc., priority 2021, published 2024):
Where a name gives a salt, the structure may show the parent alone.

How the values were obtained:
[1] = test system: Dendritic cells + T cells + CD3/CD28 beads; experiment: CRS assay, IL2 ELISA of supernatant; type: cell-based; conditions: Homo sapiens; 1 hour compound pre-incubation, overnight incubation; IL-2 only produced by activated T cells
[2] = test system: Dendritic cells + T cells + CD3/CD28 beads; experiment: CRS assay, IL6 ELISA of supernatant; type: cell-based; conditions: Homo sapiens, read-out: Dendritic cells + T cells + CD3/CD28 beads IL6* ELISA EC50 (μM)
[3] = test system: Shp1fl/fl RosaERT2-Cre/+ mouse model of lung inflammation; conditions: throughout the 21 days, control chow or Compound VII-49 chow
Protocol: ARDS-like disease model is produced by crossing Shp1^fl/fl to Shp1^fl/flRosa^ERT2-CRE/+ mice. Rosa^ERT2-CRE/+ is expressed under a Tamoxifen inducible promoter. When Tamoxifen is administered to Shp1^fl/flRosa^ERT2-CRE/+ mice CRE recombinase is activated resulting in deletion of Shp1 in hematopoietic cells.
Tamoxifen is administered at day 1 for a total of 4 days wherein Tamoxifen is administered twice a day at 200 mg/kg/bid (400 mg/kg/day). […] Mice were euthanized on day 21.
In an effort to generate an ARDS-like disease model, Shp1^fl/fl Rosa^ERT2-CRE/+ obtained from Jackson Laboratories were crossed to Shp1^fl/fl mice. Rosa^ERT2-CRE/+ is under the control of a Tamoxifen inducible promoter. Shp1^fl/fl Rosa^ERT2-CRE/+ mice were administered Tamoxifen to activate CRE recombinase resulting in deletion of Shp1 in all cells that normally express Shp1 (FIG. 1).
Mice were euthanized on day 21.

human ACE2 = human ACE2 (Homo sapiens, UniProt Q9BYF1); conditions: cited from earlier work
human ACE2, sequence (Q9BYF1 18-805): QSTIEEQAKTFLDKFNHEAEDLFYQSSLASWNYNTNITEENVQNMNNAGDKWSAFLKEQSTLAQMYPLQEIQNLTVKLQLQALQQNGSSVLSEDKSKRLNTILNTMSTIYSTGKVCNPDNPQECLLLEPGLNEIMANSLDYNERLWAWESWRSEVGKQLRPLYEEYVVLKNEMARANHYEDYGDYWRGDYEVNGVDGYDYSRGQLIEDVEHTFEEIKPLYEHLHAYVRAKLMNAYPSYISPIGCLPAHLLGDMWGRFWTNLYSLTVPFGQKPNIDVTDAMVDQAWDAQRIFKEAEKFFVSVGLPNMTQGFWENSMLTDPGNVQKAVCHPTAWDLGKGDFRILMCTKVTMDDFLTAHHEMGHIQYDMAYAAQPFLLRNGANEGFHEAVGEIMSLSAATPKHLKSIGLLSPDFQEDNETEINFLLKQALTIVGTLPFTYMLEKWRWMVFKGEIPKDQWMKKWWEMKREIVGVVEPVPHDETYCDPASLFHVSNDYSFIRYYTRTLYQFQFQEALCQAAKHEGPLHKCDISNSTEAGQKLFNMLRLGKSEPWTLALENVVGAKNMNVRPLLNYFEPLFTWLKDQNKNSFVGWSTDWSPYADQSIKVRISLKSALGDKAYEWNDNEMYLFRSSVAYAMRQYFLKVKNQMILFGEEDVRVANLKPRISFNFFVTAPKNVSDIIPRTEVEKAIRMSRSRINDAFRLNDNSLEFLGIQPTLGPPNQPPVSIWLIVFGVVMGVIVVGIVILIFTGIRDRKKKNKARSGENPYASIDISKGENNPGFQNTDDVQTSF

Question: With `CCO[C@H]1CC[C@H](n2cc(NC(=O)c3csc(-c4cn[nH]c4)n3)c(-c3nc(F)ccc3F)n2)CC1` [VI-176, N-(3-(3,6-difluoropyridin-2-yl)-1-((1r,4r)-4-ethoxycyclohexyl)-1H-pyrazol-4-yl)-2-(1H-pyrazol-4-yl)thiazole-4-carboxamide] as the molecule, how does the EC50 [1] read?
Answer: Its EC50 is 6900 nM.

Question: What about the EC50 [2] of the same molecule?
Answer: The EC50 was 0.195 µM.

Question: Which mortality [3] does the source give for `CCO[C@H]1CC[C@H](n2cc(NC(=O)c3csc(-c4cnn(C(C)OP(=O)(O)O)c4)n3)c(-c3nc(F)ccc3F)n2)CC1` (stereo partly shown) [VII-49, 1-(4-(4-((3-(3,6-difluoropyridin-2-yl)-1-((1r,4r)-4-ethoxycyclohexyl)-1H-pyrazol-4-yl)carbamoyl)thiazol-2-yl)-1H-pyrazol-1-yl)ethyl dihydrogen phosphate tris salt] here?
Answer: The mortality was “no mice died”.

Question: Which IC50 (human ACE2) does the source give for `N[C@@H](CCN[C@@H](CCN1CC[C@H]1C(=O)O)C(=O)O)C(=O)O` [nicotianamine] here?
Answer: The IC50 was 84 nM.
